Laboratory results reported in ChEMBL document CHEMBL1130382, “Inhibition of thyroid hormone uptake by calcium antagonists of the dihydropyridine class” (J Med Chem, 1997).

Columns and labels:
HepG2 [1] = assay: Inhibitory effect on L-triiodothyronine (L-T3) uptake by human HepG2 hepatoma cells at an application dose 10E-5 M; type: functional
[2] = Partition coefficient (logP); conditions: octanol/water
HepG2 [3] = assay: Compound tested for inhibitory effect on L-triiodothyronine (L-T3) uptake by human HepG2 hepatoma cells at an application dose 10E-5 (M); type: functional

Compound	logP [2]	I (HepG2 [1]) [%]	I (HepG2 [3]) [%]
CCOC(=O)C1=C(C)NC(C)=C(C(=O)OCC)C1c1cccc(O)c1	4.03	21.6	–
CCOC(=O)C1=C(C)N=C(C)/C(=C(/O)OCC)C1c1cccc(OC)c1 (stereo not given)	3.22	17.5	–
CCOC(=O)C1=C(C)N=C(C)/C(=C(/O)OCC)C1c1cccc(I)c1 (stereo not given)	4.48	–	33.2
CC1=C(C#N)C(c2cccc([N+](=O)[O-])c2)C(C#N)=C(C)N1	1.45	53.8	–
CCO/C(O)=C1\C(C)=NC(C)=C(C(=O)OC)C1c1cccc(C(F)(F)F)c1 (stereo not given)	3.9	19.6	–
CCOC(=O)c1c(C)nc(C)c(C(=O)OCC)c1-c1cccc([N+](=O)[O-])c1	3.1	28.4	–
CCOC(=O)C1=C(C)N=C(C)/C(=C(/O)OCC)C1c1cccc(C)c1 (stereo not given)	3.76	29.7	–
COC(=O)C1=C(C)NC(C)=C(C(=O)OC)C1c1ccccc1[N+](=O)[O-] [NIFEDIPINE]	–	80.5	–
CCOC(=O)C1=C(C)NC(C)=C(C(=O)OC)C1c1cccc([N+](=O)[O-])c1 (stereo not given) [NITRENDIPINE]	–	81.8	–

Further lines, with some results ahead:

logP [2]	Compound	I (HepG2 [1]) [%]	I (HepG2 [3]) [%]
3.82	CCO/C(O)=C1\C(C)=NC(C)=C(C(=O)OC)C1c1ccccc1C(F)(F)F (stereo not given)	23.1	–
4.7	CCOC(=O)C1=C(C)N=C(C)/C(=C(/O)OCC)C1c1ccc(I)cc1 (stereo not given)	26.8	–
2.51	CCO/C(O)=C1\C(C)=NC(C)=C(C(=O)OC)C1c1ccccc1[N+](=O)[O-] (stereo not given)	41.4	–
3.6	CCO/C(O)=C1\C(C)=NC(C)=C(C(=O)OC)C1c1ccc([N+](=O)[O-])cc1 (stereo not given)	85.8	–
2.94	c1ccc(Nc2ccccc2)cc1 [DIPHENYLAMINE]	20.9	–
3.83	c1ccc(Oc2ccccc2)cc1 [DIPHENYLETHER]	22	–
3.08	O=C(O)c1ccccc1Nc1ccccc1 [FENAMIC ACID]	20.5	–
